Where “and” joins values, the source holds several entries; their conditions need not be identical. Identical values can stand only once. ± gives the uncertainty stated by the source.
Tests used:
[1] = xn = mol fraction of the nth substance listed

CC(C)(C)O
Details | viscosity
293.15 K, 101 kPa | 3.925 ± 1 mPa·s
298 K, 101 kPa | 3.41 ± 0.18 mPa·s and 4.324 ± 0.036 mPa·s
298.15 K, 100 kPa | 4.396 ± 0.18 mPa·s
303 K, 101.33 kPa | 3.268 ± 0.34 mPa·s
303.15 K, 101.3 kPa | 3.318 ± 0.038 mPa·s and 3.318 ± 0.04 mPa·s
303.2 K, 101.33 kPa | 3.333 ± 0.022 mPa·s and 3.333 ± 0.027 mPa·s
305 K, 101 kPa | 3.076 ± 0.019 mPa·s
308 K, 101 kPa | 2.333 mPa·s
308.15 K, 101.3 kPa | 2.55 ± 0.015 mPa·s
308.15 K, 101.33 kPa | 2.644 ± 0.27 mPa·s and 2.595 mPa·s and 2.546 ± 0.022 mPa·s
313 K, 101 kPa | 2.102 ± 0.014 mPa·s
313.15 K, 101.3 kPa | 2.047 ± 0.047 mPa·s
318 K, 101 kPa | 1.702 ± 0.018 mPa·s
318.15 K, 101.33 kPa | 1.889 ± 0.19 mPa·s and 1.726 mPa·s
323 K, 101 kPa | 1.404 ± 0.0093 mPa·s
323.15 K, 100 kPa | 1.418 ± 0.059 mPa·s
323.15 K, 101 kPa | 1.421 ± 0.018 mPa·s and 1.423 ± 0.011 mPa·s and 1.415 ± 0.01 mPa·s

CCCC
viscosity [mPa·s]
Details | 293.15 K | 313.15 K
101 kPa | 0.17 ± 0.01 | 0.143 ± 0.003
101.33 kPa | 0.17 ± 0.0034 | 0.143 ± 0.0029

CCNCC
Details | viscosity
293.15 K, 100 kPa | 0.32 ± 0.03 mPa·s and 0.32 ± 0.01 mPa·s
293.15 K, 101.33 kPa | 0.32 ± 0.009 mPa·s
298.15 K, 101 kPa | 0.29 ± 0.003 mPa·s and 0.265 ± 0.002 mPa·s
303.15 K, 101.33 kPa | 0.288 ± 0.008 mPa·s
308.15 K, 101 kPa | 0.2466 ± 0.01 mPa·s
308.15 K, 101.33 kPa | 0.274 ± 0.007 mPa·s
313.15 K, 100 kPa | 0.26 ± 0.02 mPa·s and 0.26 ± 0.01 mPa·s
318.15 K, 100 kPa | 0.248 ± 0.007 mPa·s
323.15 K, 100 kPa | 0.237 ± 0.019 mPa·s and 0.237 ± 0.006 mPa·s

COCCOCCOCCO
viscosity
Details | 293.15 K | 298.15 K | 303.15 K | 308.15 K | 313.15 K | 318.15 K | 323.15 K
101 kPa | 7.211 ± 0.13 mPa·s | 6.287 ± 0.13 mPa·s and 6.254 ± 0.11 mPa·s | 5.412 ± 0.099 mPa·s | 4.535 ± 0.097 mPa·s | – | 3.726 ± 0.079 mPa·s | –
101.33 kPa | – | – | – | 4.642 ± 0.11 mPa·s and 5.055 ± 0.13 mPa·s | 4.074 ± 0.31 mPa·s and 4.08 ± 0.068 mPa·s | – | 3.202 ± 0.31 mPa·s and 3.2 ± 0.053 mPa·s

COP(=O)([O-])OC.Cn1cc[n+](C)c1
viscosity [mPa·s]
Details | 293.15 K | 298.15 K | 303.15 K | 308.15 K | 313.15 K | 318.15 K | 323.15 K
101 kPa | 415.9 ± 30 | 290.8 ± 18 | 210.1 ± 10 | 155.6 ± 6.4 | 119.2 ± 4.2 | 92.77 ± 2.7 | 74.24 ± 1.9
101.33 kPa | – | – | – | 139.5 ± 2.6 | – | – | –

C[NH+](CCO)CCO.O=C[O-]
101 kPa
Details | viscosity [mPa·s]
293.15 K | 708.5 ± 27
298.15 K | 491.4 ± 17
303.15 K | 350 ± 11
313.15 K | 190 ± 5
323.15 K | 124.5 ± 2.9

Nc1ccccc1
Details | viscosity
293.15 K, 100 kPa | 4.407 ± 0.2 mPa·s and 4.41 ± 0.35 mPa·s
293.15 K, 101 kPa | 4.28 ± 0.05 mPa·s and 4.28 ± 0.04 mPa·s
293.15 K, 101.33 kPa | 4.404 ± 0.048 mPa·s
293.35 K, 101 kPa | 4.26 ± 0.05 mPa·s
298.15 K, 100 kPa | 3.737 ± 0.17 mPa·s
298.15 K, 101.3 kPa | 3.61 ± 0.09 mPa·s
298.15 K, 101.32 kPa | 3.773 ± 0.0014 mPa·s
298.15 K, 101.33 kPa | 3.62 ± 0.036 mPa·s
302.4 K, 101 kPa | 5.537 mPa·s
302.75 K, 101 kPa | 3.15 ± 0.03 mPa·s
303 K, 101 kPa | 3.097 ± 0.079 mPa·s
303 K, 101.3 kPa | 3.111 ± 0.082 mPa·s
303 K, 101.33 kPa | 3.036 ± 0.31 mPa·s and 3.035 ± 0.31 mPa·s
303.15 K, 100 kPa | 3.197 ± 0.14 mPa·s and 3.029 ± 0.035 mPa·s
303.15 K, 101.33 kPa | 3.078 ± 0.025 mPa·s
308 K, 101 kPa | 2.663 ± 0.068 mPa·s
308 K, 101.3 kPa | 2.691 ± 0.071 mPa·s
308.1 K, 101 kPa | 2.79 ± 0.063 mPa·s
308.15 K, 100 kPa | 2.78 ± 0.12 mPa·s
308.15 K, 101 kPa | 2.857 ± 0.29 mPa·s and 2.639 ± 0.028 mPa·s
308.15 K, 101.3 kPa | 2.7 ± 0.07 mPa·s
308.15 K, 101.33 kPa | 2.615 ± 0.053 mPa·s
313 K, 101 kPa | 2.329 ± 0.06 mPa·s
313 K, 101.3 kPa | 2.338 ± 0.062 mPa·s
313.15 K, 100 kPa | 2.445 ± 0.11 mPa·s and 2.305 ± 0.027 mPa·s and 2.49 ± 0.2 mPa·s
313.15 K, 101.33 kPa | 2.327 ± 0.018 mPa·s
318 K, 101 kPa | 2.057 ± 0.053 mPa·s
318 K, 101.3 kPa | 2.054 ± 0.055 mPa·s
318.15 K, 100 kPa | 2.159 ± 0.096 mPa·s
318.15 K, 101 kPa | 2.157 ± 0.22 mPa·s and 2.047 ± 0.025 mPa·s and 2.113 ± 0.023 mPa·s
323.15 K, 100 kPa | 1.927 ± 0.085 mPa·s
323.15 K, 101 kPa | 1.806 ± 0.12 mPa·s
323.15 K, 101.3 kPa | 1.87 ± 0.05 mPa·s
323.15 K, 101.33 kPa | 2.01 ± 0.02 mPa·s

O=S(=O)([O-])[O-].O=S(=O)([O-])[O-].O=S(=O)([O-])[O-].[Fe+3].[Fe+3] + O
[1], 323.15 K, 101.3 kPa
Details | viscosity [mPa·s]
x1 = 0.0012 | 0.617 ± 0.049
x1 = 0.0024 | 0.645 ± 0.051
x1 = 0.00498 | 0.768 ± 0.074
x1 = 0.00789 | 0.982 ± 0.11
x1 = 0.0111 | 1.275 ± 0.13

CCNCC + O=C1CCCCC1
[1], 298.15 K, 101 kPa
Details | viscosity [mPa·s]
x2 = 0.076 | 0.296 ± 0.008
x2 = 0.157 | 0.338 ± 0.008
x2 = 0.2421 | 0.415 ± 0.009
x2 = 0.3319 | 0.502 ± 0.01
x2 = 0.427 | 0.639 ± 0.012
x2 = 0.5278 | 0.79 ± 0.013
x2 = 0.6349 | 0.97 ± 0.014
x2 = 0.7488 | 1.224 ± 0.016
x2 = 0.8702 | 1.54 ± 0.017

CCC(O)CO (stereo not given) + O=C1CCCN1
[1], 101.33 kPa
Details | viscosity [mPa·s]
298.15 K, x2 = 0.0555 | 46.5 ± 0.97
298.15 K, x2 = 0.09272 | 42.92 ± 0.89
298.15 K, x2 = 0.2043 | 34.62 ± 0.72
298.15 K, x2 = 0.2943 | 29.84 ± 0.63
298.15 K, x2 = 0.4023 | 25.54 ± 0.55
298.15 K, x2 = 0.508 | 22.41 ± 0.48
298.15 K, x2 = 0.6045 | 20.25 ± 0.43
298.15 K, x2 = 0.6902 | 18.59 ± 0.39
298.15 K, x2 = 0.7968 | 16.74 ± 0.35
298.15 K, x2 = 0.8891 | 15.2 ± 0.32
298.15 K, x2 = 0.9416 | 14.65 ± 0.31
308.15 K, x2 = 0.04722 | 26.34 ± 0.54
308.15 K, x2 = 0.1008 | 23.83 ± 0.49
308.15 K, x2 = 0.2171 | 19.71 ± 0.41
308.15 K, x2 = 0.2992 | 17.63 ± 0.37
308.15 K, x2 = 0.6065 | 12.84 ± 0.27
308.15 K, x2 = 0.6909 | 11.99 ± 0.25
308.15 K, x2 = 0.8019 | 10.94 ± 0.23
308.15 K, x2 = 0.886 | 10.18 ± 0.21
308.15 K, x2 = 0.9402 | 9.675 ± 0.2
318.15 K, x2 = 0.04672 | 15.75 ± 0.32
318.15 K, x2 = 0.07619 | 15.07 ± 0.31
318.15 K, x2 = 0.2048 | 12.57 ± 0.26
318.15 K, x2 = 0.289 | 11.39 ± 0.24
318.15 K, x2 = 0.4043 | 10.2 ± 0.22
318.15 K, x2 = 0.4992 | 9.411 ± 0.2
318.15 K, x2 = 0.6031 | 8.699 ± 0.18
318.15 K, x2 = 0.6923 | 8.26 ± 0.17
318.15 K, x2 = 0.7988 | 7.666 ± 0.16
318.15 K, x2 = 0.8817 | 7.237 ± 0.15
318.15 K, x2 = 0.9477 | 6.892 ± 0.14

— the CheMixHub viscosity set
